Assay results as given in patent publication US7705178B2, “Altering the crystal size distribution of N-(phosphonomethyl) iminodiacetic acid for improved filtration and product quality” (priority 2005, dated 2010).
“And” between values parts separate entries of the source, which are not always exact repeats. Equal values may be shown once.

How the values were obtained:
[1] = assay type: physicochemical; details: room temperature (about 25 °C); mother liquor having a relatively high impurity content
Source text: It has been determined that glyphosine and NMG are more soluble in PMIDA mother liquor than is PMIDA. […] Those solubility limits are higher than the impurity concentration typically encountered in the prior art processes, thus it is believed that it is unlikely that impurity partitioning to the PMIDA wetcake results from solubility considerations such as impurities precipitating from solution onto the forming PMIDA crystal.

[2] = PMIDA solubility in acidified PM mother liquor; assay type: physicochemical; details: commercial batch mother liquor acidified with HCl
Protocol: For instance, mother liquor recovered at the end of a commercial scale batch was acidified with HCl in order to have an HCl content approximately equivalent to that found at the end of the PM reaction.
The data in Table 9B indicate that low levels of supersaturation will relieve over time. […] Solubility experiments indicate that the PMIDA solubility limit in acidified ML at 105° C. is between about 6.4 wt % and about 8.5 wt %. As noted in Tables 9A and 9B, equilibrium samples were also taken at various temperatures.

[3] = Equilibrium PMIDA concentration in PM reactor mother liquor (interrupted feed experiments); assay type: physicochemical; details: for Equilibrium PMIDA in PM mother liquor (wt %): 60:40 DSIDA split
Protocol: PMIDA solubility limits change throughout the PM reaction making supersaturation prediction problematic. Several laboratory experiments were performed at 105° C. using a 60:40 DSIDA split between the hydrolyzer and PM reactor in order to evaluate supersaturation limits during seeding and the initial stages of the crystallization event. The PM feed amounts were altered such that only a portion of the typical feed amounts were used in order to simulate various stages of the PM reaction step. […] It is believed, without being bound to any particular theory, that as NaCl is produced during the PM reaction, and HCl is consumed, PMIDA solubility is suppressed. Table B presents PMIDA solubility in the PM reactor mother liquor at varying amounts of formalin addition.
Several laboratory experiments using an interrupted feed were performed to evaluate supersaturation limits during seeding and the initial stages of the crystallization event. The PM feed amounts were altered such that only a portion of the typical feed amounts were used in order to simulate various stages of the PM reaction step. The first two experiments were designed such that only about 40% of the typical feed amounts were used in order to mimic reactor conditions that occurred during seed addition of early-seeding experiments. These experiments utilized a 60:40 DSIDA split between the hydrolyzer and PM reactor, 43% formalin, and DSIDA1. In the first experiment, a spike of about 0.3% of NMG on a final batch weight basis was added to the reactor following the hydrolysis step. Following the PM reaction, about 6.4% of seed on a final batch weight basis were added after the feeds were completed and a sample was removed. Post-seed samples were removed at 20, 40 and 100 minutes following the seed addition to determine the rate at which supersaturation would be relieved. All of the samples were taken at approximately 105° C. As the temperature decreased, additional samples were taken at 75° C. and 50° C. The first experiment data are in Table 9A below.
In the second experiment, no NMG was added after the hydrolysis step, and seed crystals were not added. Post-feed samples were removed at 0, 60 and 240 minutes following completion of the feed addition. The second experiment data are in Table 9B below.
A third experiment was designed such that only about 70% of the typical feed amounts were used in order to simulate PM reactor conditions when the PMIDA crystallization event typically takes place. The experiment utilized a 60:40 DSIDA split between the hydrolyzer and PM reactor, 37% formalin, and DSIDA1. No NMG was added after the hydrolysis step, and seed crystals were not added. Following the completion of the feeds, the reactor contents were allowed to mix at 105° C. for approximately 21 hours before sampling.
The fourth experiment was designed such that 100% of the typical feed amounts were added to the reactor in order to determine the equilibrium PMIDA solubility of the mother liquor after all of the feeds had been added. This experiment utilized a 60:40 DSIDA split between the hydrolyzer and PM reactor, 37% formalin, and DSIDA1. No NMG was added after the hydrolysis step, and seed crystals were not added. Following completion of the feeds, the reactor contents were allowed to mix at 105° C. for approximately 21 hours before sampling. […] Thus, it is believed, without being bound to any particular theory, that as the PM reaction progresses, supersaturation increase is a function of both PMIDA in situ generation and a decreasing solubility limit.
A fifth experiment was designed to determine the equilibrium mother liquor PMIDA concentration just prior to the crystallization event when a 75:25 DSIDA feed split is used. In addition to the feed split, the experiment used 37% formalin and DSIDA1. No NMG was added after the hydrolysis step, and seed crystals were not added. Mother liquor samples were removed during the course of the experiment. […]

Row | Structure (SMILES) | solubility limit in PMIDA mother liquor [1] | PMIDA Solubility in PM Mother Liquor, PM (wt %) ([2]; 20 °C) | PMIDA Solubility in PM Mother Liquor, PM (wt %) ([2]; 50 °C) | PMIDA Solubility in PM Mother Liquor, PM (wt %) ([2]; 70 °C) | PMIDA Solubility in PM Mother Liquor, PM (wt %) ([2]; 90 °C) | PMIDA Solubility in PM Mother Liquor, PM (wt %) ([2]; 115 °C) | Equilibrium PMIDA in PM mother liquor (wt %) ([3]; 40% of total formalin added to PM reactor, 105 °C) | Equilibrium PMIDA in PM mother liquor (wt %) ([3]; 70% of total formalin added to PM reactor, 105 °C) | Equilibrium PMIDA in PM mother liquor (wt %) ([3]; 100% of total formalin added to PM reactor, 105 °C) | PM mother liquor PMIDA concentration, averaged equilibrium data ([3]; 105 °C, average of interrupted runs 1 and 2) | ML PMIDA (wt %), equilibrium ([3]; PM interrupted run 1 (about 40% of feeds, seeded, NMG spike), equilibrium at 50 °C) | ML PMIDA (wt %), equilibrium ([3]; PM interrupted run 1 (about 40% of feeds, seeded, NMG spike), equilibrium at 75 °C) | ML PMIDA (wt %), equilibrium ([3]; PM interrupted run 1 (about 40% of feeds, seeded, NMG spike), equilibrium at 105 °C) | ML PMIDA (wt %), equilibrium ([3]; PM interrupted run 2 (about 40% of feeds, no seed, no NMG), equilibrium at 50 °C) | ML PMIDA (wt %), equilibrium ([3]; PM interrupted run 2 (about 40% of feeds, no seed, no NMG), equilibrium at 75 °C) | ML PMIDA (wt %), equilibrium ([3]; PM interrupted run 2 (about 40% of feeds, no seed, no NMG), equilibrium at 105 °C) | ML PMIDA (wt %), equilibrium ([3]; PM interrupted run 5, 75:25 DSIDA split, 84.0% of total formalin added, equilibrium at 105 °C, about 19 hours)
1 | CN(CC(=O)O)CP(=O)(O)O [NMG, N-methyl-N-(phosphonomethyl)glycine] | about 3.6 wt % |  |  |  |  |  |  |  |  |  |  |  |  |  |  |  | 
2 | O=C(O)CN(CC(=O)O)CP(=O)(O)O [PMIDA, N-(phosphonomethyl)iminodiacetic acid] |  | 0.52 wt % | 1.26 wt % | 2.29 wt % | 4.15 wt % | 8.72 wt % | 12.6% wt % | 8.6 wt % and 8.6% wt % | 5.9 wt % and 5.9% wt % | about 16.4 wt % | 3.3 wt % | 5.3 wt % | 12.4 wt % | 4.0 wt % | 8.1 wt % | 13.8 wt % | 14.4 wt %
3 | O=C(O)CN(CP(=O)(O)O)CP(=O)(O)O [glyphosine, N,N-bis-(phosphonomethyl)glycine] | about 3.9 wt % |  |  |  |  |  |  |  |  |  |  |  |  |  |  |  | 
